In patent publication US20210163443A1, “Febrifugine Derivatives” (BRISTOL-MYERS SQUIBB COMPANY, priority 2019, published 2021):
Where a name gives a salt, the structure may show the parent alone.

These molecules were tested against T1, human ProRS (prolyl tRNA synthetase moiety of glutamyl prolyl tRNA synthetase, EPRS) (Homo sapiens, UniProt P07814) (assay: Assay for inhibitors of prolyl tRNA synthetase activity (ProRS assay, labeled proline incorporation)). Conditions: human ProRS 20 nM, 10 min at 37° C.; read-out: EPRS IC50.
T1 construct: The prolyl tRNA synthetase moiety (ProRS) in the cDNA of glutamyl prolyl tRNA synthetase was subcloned; 6xHis (N, cleaved yes); made in house; host or cells: E. coli BL21 (DE3)
T1 sequence (P07814 1007-1512 limits assumed): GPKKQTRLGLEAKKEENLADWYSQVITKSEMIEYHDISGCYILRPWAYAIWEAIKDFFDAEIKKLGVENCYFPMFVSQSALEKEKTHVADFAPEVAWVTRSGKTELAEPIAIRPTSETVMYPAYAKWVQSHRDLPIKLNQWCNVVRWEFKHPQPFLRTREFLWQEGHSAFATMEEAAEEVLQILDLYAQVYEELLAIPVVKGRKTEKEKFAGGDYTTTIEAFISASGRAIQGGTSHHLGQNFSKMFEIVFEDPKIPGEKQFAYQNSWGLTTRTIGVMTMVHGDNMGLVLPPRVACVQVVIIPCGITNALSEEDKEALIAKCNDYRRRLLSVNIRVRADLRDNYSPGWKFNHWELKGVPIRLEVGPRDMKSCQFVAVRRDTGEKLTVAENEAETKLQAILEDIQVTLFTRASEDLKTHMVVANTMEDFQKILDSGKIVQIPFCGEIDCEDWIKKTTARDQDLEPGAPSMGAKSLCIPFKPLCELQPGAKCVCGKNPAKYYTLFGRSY
Assay type: biochemical
Description: In order to establish the activities of the compounds highlighted above, we determined extent of inhibition of prolyl tRNA synthetase activity in dose response curves to obtain IC50 values.
The prolyl tRNA synthetase moiety (ProRS) in the cDNA of glutamyl prolyl tRNA synthetase was subcloned, tagged with a single biotin, purified and used in the assay.
Briefly, human ProRS with a 6×N-terminal His tag in pET28N with TVMV BioP was transformed in E. coli BL21 (DE3) cells, selected, overexpressed and purified using a Ni Seph 6 FF XK 16/20 column in the first stage. Ni-NTA eluates were pooled and treated with TVMV protease, and biotinylated using d-Biotin, MgCl2, ATP and the BirA enzyme. This was rerun through a Ni column as before. The eluates were further enriched and purified using membrane ultrafiltration and a SuperDex 200 XK 16/60 column, and peak fractions were confirmed by SDS-PAGE prior to protein amount determination, aliquoting and storage at −80° C. • ProRS assay was performed in 96 well plates in a final reaction volume of 20 μl, using staggered additions of Tris-Cl (pH 7.5, 60 mM), dithiothreitol (2 mM), ATP (5 mM, pH 7.0), MgCl2 6 mM), ProRS (20 nM, with pre-determined active fraction range) and bovine tRNA (20 μg). Controls and compounds, at various concentrations (10 μM to 0.5 nM), were incubated on ice with enzyme mix for 15 min followed by addition of proline (non-labeled and labeled, 3.96 and 1.04 μM (1 μCi) respectively) to initiate the reaction. Reaction was carried out for 10 min at 37° C. and terminated by addition of TCA (10%, 100 μl). Reaction mix was collected on a Whatman GF/B filter using a vacuum filtration manifold. This filter was washed 3 times with 5% TCA followed by 2 washes with ethanol, air dried, and read using a liquid scintillation counter (TopCount NXT) using MicroScint O. IC50 values were calculated and analyzed using ToolSet (4-parameter plot) and depicted herein.

SMILES	IC50
CCc1cc(F)cc2c(=O)n(CC(=O)C[C@H]3NCCC[C@@H]3O)cnc12 [Example 14, 8-Ethyl-6-fluoro-3-(3-((2R,3S)-3-hydroxypiperidin-2-yl)-2-oxopropyl)quinazolin-4(3H)-one hydrochloride]	0.038 µM
Cc1c(Cl)ccc2c(=O)n(C[C@@H](O)C[C@H]3NCCC[C@@H]3O)cnc12 [Example 36, 7-Chloro-3-{(S)-2-hydroxy-3-[(2R,3S)-3-hydroxypiperidin-2-yl]propyl}-8-methylquinazolin-4(3H)-one hydrochloride]	0.429 µM
Cc1cc(-c2cccc(F)c2)cc2c(=O)n(CC(=O)C[C@H]3NCCC[C@@H]3O)cnc12 [Example 19, 6-(3-Fluorophenyl)-3-{3-[(2R,3S)-3-hydroxypiperidin-2-yl]-2-oxopropyl}-8-methylquinazolin-4(3H)-one hydrochloride]	0.009 µM
COC(=O)N1CCC[C@H](O)[C@H]1C[C@H](O)Cn1cnc2c(C)cc(Cl)cc2c1=O [Example 65, Methyl (2R,3S)-2-((S)-3-(6-chloro-8-methyl-4-oxoquinazolin-3(4H)-yl)-2-hydroxypropyl)-3-hydroxypiperidine-1-carboxylate]	> 10 µM
Cc1cc(C#N)cc2c(=O)n(C[C@@H](O)C[C@H]3NCCC[C@@H]3O)cnc12 [Example 47, 3-{(S)-2-Hydroxy-3-[(2R,3S)-3-hydroxypiperidin-2-yl]propyl}-8-methyl-4-oxo-3,4-dihydroquinazoline-6-carbonitrile hydrochloride]	0.235 µM
O=c1c2c(-c3cccc(C(F)(F)F)c3)cccc2ncn1C[C@@H](O)C[C@H]1NCCC[C@@H]1O [Example 60, 3-{(S)-2-Hydroxy-3-[(2R,3S)-3-hydroxypiperidin-2-yl]propyl}-5-[3-(trifluoromethyl)phenyl]quinazolin-4(3H)-one hydrochloride]	0.038 µM
O=C(C[C@H]1NCCC[C@@H]1O)Cn1cnc2cccc(-c3cccc(F)c3)c2c1=O [Example 15, 5-(3-Fluorophenyl)-3-{3-[(2R,3S)-3-hydroxypiperidin-2-yl]-2-oxopropyl}quinazolin-4(3H)-one hydrochloride]	0.006 µM
Cc1cc(-c2cccc(C(F)(F)F)c2)cc2c(=O)n(C[C@@H](O)C[C@H]3NCCC[C@@H]3O)cnc12 [Example 54, 3-{(S)-2-Hydroxy-3-[(2R,3S)-3-hydroxypiperidin-2-yl]propyl}-8-methyl-6-(3-(trifluoromethyl)phenyl)quinazolin-4(3H)-one hydrochloride]	0.031 µM
Cc1cc(C2CC2)cc2c(=O)n(C[C@@H](O)C[C@H]3NCCC[C@@H]3O)cnc12 [Example 46, 6-Cyclopropyl-3-{(S)-2-hydroxy-3-[(2R,3S)-3-hydroxypiperidin-2-yl]propyl}-8-methylquinazolin-4(3H)-one hydrochloride]	0.034 µM
CCc1cc(Cl)cc2c(=O)n(C[C@@H](O)C[C@H]3NCCC[C@@H]3O)cnc12 [Example 38, 6-Chloro-8-ethyl-3-{(S)-2-hydroxy-3-[(2R,3S)-3-hydroxypiperidin-2-yl]propyl}quinazolin-4(3H)-one hydrochloride]	0.506 µM
Cc1cc(Cl)cc2c(=O)n(C[C@@H]3C[C@@H]4[C@@H](O)CCCN4CO3)cnc12 [Example 72, 6-Chloro-3-{[(3S,4aR,5S)-5-hydroxyhexahydro-1H,3H-pyrido[1,2-c][1,3]oxazin-3-yl]methyl}-8-methylquinazolin-4(3H)-one]	> 10 µM
Cc1cc(C2CCOCC2)cc2c(=O)n(CC(=O)C[C@H]3NCCC[C@@H]3O)cnc12 [Example 23, 3-{3-[(2R,3S)-3-Hydroxypiperidin-2-yl]-2-oxopropyl}-8-methyl-6-(tetrahydro-2H-pyran-4-yl)quinazolin-4(3H)-one hydrochloride]	0.012 µM
CCc1cc(Br)cc2c(=O)n(CC(=O)C[C@H]3NCCC[C@@H]3O)cnc12 [Example 13, 6-Bromo-8-ethyl-3-{3-[(2R,3S)-3-hydroxypiperidin-2-yl]-2-oxopropyl}quinazolin-4(3H)-one hydrochloride]	0.006 µM
Cc1cc(-c2cccnc2)cc2c(=O)n(CC(=O)C[C@H]3NCCC[C@@H]3O)cnc12 [Example 21, 3-{3-[(2R,3S)-3-Hydroxypiperidin-2-yl]-2-oxopropyl}-8-methyl-6-(pyridin-3-yl)quinazolin-4(3H)-one dihydrochloride]	0.008 µM
Cc1cc(C)c2ncn(C[C@@H](O)C[C@H]3NCCC[C@@H]3O)c(=O)c2c1 [Example 39, 3-{(S)-2-Hydroxy-3-[(2R,3S)-3-hydroxypiperidin-2-yl]propyl}-6,8-dimethylquinazolin-4(3H)-one hydrochloride]	0.158 µM
O=C(C[C@H]1NCCC[C@@H]1O)Cn1cnc2ccc(-c3cccc(F)c3)cc2c1=O [Example 16, 6-(3-Fluorophenyl)-3-{3-[(2R,3S)-3-hydroxypiperidin-2-yl]-2-oxopropyl}quinazolin-4(3H)-one hydrochloride]	0.01 µM
Cc1cc(Cl)cc2c(=O)n(CC(=O)C[C@H]3NCCC[C@@H]3O)cnc12 [Example 1, 6-Chloro-3-{3-[(2R,3S)-3-hydroxypiperidin-2-yl]-2-oxopropyl}-8-methylquinazolin-4(3H)-one hydrochloride]	0.073 µM
O=C(C[C@H]1NCCC[C@@H]1O)Cn1cnc2cccc(-c3cccc(C(F)(F)F)c3)c2c1=O [Example 26, 3-{3-[(2R,3S)-3-Hydroxypiperidin-2-yl]-2-oxopropyl}-5-[3-(trifluoromethyl)phenyl]quinazolin-4(3H)-one hydrochloride]	0.013 µM
O=C(C[C@H]1NCCC[C@@H]1O)Cn1cnc2ccc(-c3cccc(Cl)c3)cc2c1=O [Example 17, 6-(3-Chlorophenyl)-3-{3-[(2R,3S)-3-hydroxypiperidin-2-yl]-2-oxopropyl}quinazolin-4(3H)-one hydrochloride]	0.028 µM
Cc1cc(C(C)C)cc2c(=O)n(C[C@@H](O)C[C@H]3NCCC[C@@H]3O)cnc12 [Example 45, 3-{(S)-2-Hydroxy-3-[(2R,3S)-3-hydroxypiperidin-2-yl]propyl}-6-isopropyl-8-methylquinazolin-4(3H)-one hydrochloride]	0.021 µM
Cc1cc(-c2cccc(C(F)(F)F)c2)cc2c(=O)n(CC(=O)C[C@H]3NCCC[C@@H]3O)cnc12 [Example 20, 3-{3-[(2R,3S)-3-Hydroxypiperidin-2-yl]-2-oxopropyl}-8-methyl-6-[3-(trifluoromethyl)phenyl]quinazolin-4(3H)-one hydrochloride]	0.028 µM
Cc1cc(F)cc2c(=O)n(C[C@@H](O)C[C@H]3NCCC[C@@H]3O)cnc12 [Example 34, 6-Fluoro-3-{(S)-2-hydroxy-3-[(2R,3S)-3-hydroxypiperidin-2-yl]propyl}-8-methylquinazolin-4(3H)-one hydrochloride]	0.183 µM
O=c1c2cc(-c3cccc(F)c3)ccc2ncn1C[C@@H](O)C[C@H]1NCCC[C@@H]1O [Example 50, 6-(3-Fluorophenyl)-3-{(S)-2-hydroxy-3-[(2R,3S)-3-hydroxypiperidin-2-yl]propyl}quinazolin-4(3H)-one hydrochloride]	0.014 µM
Cc1cc(OC(F)(F)F)cc2c(=O)n(C[C@@H](O)C[C@H]3NCCC[C@@H]3O)cnc12 [Example 42, 3-{(S)-2-Hydroxy-3-[(2R,3S)-3-hydroxypiperidin-2-yl]propyl}-8-methyl-6-(trifluoromethoxy)quinazolin-4(3H)-one hydrochloride]	0.02 µM
